Key:
[1] = Mean residence time in Wistar Han rat at 0.1 mg/kg, iv administered as cassette dosing measured upto 24 hrs by LC-MS/MS analysis; assay type: ADME, organism-based; conditions: in vivo
[2] = Lipophilicity, logD of compound at pH 7 by shake flask based HPLC method; assay type: physicochemical; conditions: buffer
[3] = Ratio of unbound brain to plasma drug concentration in Wistar Han rat; assay type: ADME, cell-free; conditions: read-out: K(p,uu,brain)
[4] = Mean residence time in Wistar Han rat at 2 mg/kg, iv measured upto 24 hrs by LC-MS/MS analysis; assay type: ADME, organism-based; conditions: in vivo
[5] = Mean residence time in Beagle dog at 0.25 mg/kg, iv measured upto 24 hrs by LC-MS/MS analysis; assay type: ADME, organism-based, Canis lupus familiaris; conditions: in vivo
[6] = Oral bioavailability in Wistar Han rat at 10 mg/kg measured upto 24 hrs by LC-MS/MS analysis; assay type: ADME, organism-based; conditions: in vivo
[7] = AUC in rat at 100 mg/kg, po BID; assay type: ADME, organism-based; conditions: in vivo
[8] = Oral bioavailability in Beagle dog at 0.5 mg/kg measured upto 24 hrs by LC-MS/MS analysis; assay type: ADME, organism-based, Canis lupus familiaris; conditions: in vivo
[9] = Ratio of unbound brain to plasma drug concentration in rhesus monkey; assay type: ADME, cell-free, Macaca mulatta; conditions: read-out: K(p,uu,brain)
[10] = Oral bioavailability in Wistar Han rat at 1 mg/kg measured upto 24 hrs by LC-MS/MS analysis; assay type: ADME, organism-based; conditions: in vivo
[11] = Ratio of unbound CSF to plasma drug concentration in rhesus monkey; assay type: ADME, Macaca mulatta

Row | SMILES | MRT [1] | logD [2] | further results
1 | Cn1cc(-n2ncc3cc(Cl)c(C4CCN(C5(C)COC5)CC4)cc32)cn1 | 3.4 h | 2.8 | –
2 | COCC12CC(n3cc(-n4ncc5cc(Cl)c(N6CCN(C7(C)COC7)CC6)cc54)cn3)(C1)C2 | 2.2 h | – | –
3 | Cc1cc(-n2ncc3ccc([C@]4(C#N)CC45CC5)cc32)nc(C)n1 | 1 h | – | Kp uu [3]: 0.19
4 | CC1(N2CCC(c3cc4c(cnn4-c4cnn(C5CC5)c4)cc3Cl)CC2)COC1 | 3.6 h | 3.4 | –
5 | Cn1ccc(-n2ncc3ccc([C@]4(C#N)CC45CC5)cc32)n1 | 0.8 h | – | Kp uu [3]: 1
6 | CC1(N2CCN(c3cc4c(cnn4-c4cnn(C56CC(C#N)(C5)C6)c4)cc3Cl)CC2)COC1 | 2.9 h | – | –
7 | C[C@@]1(N2CCN(c3cc4c(cnn4-c4cnn(C5CC5)c4)cc3Cl)CC2)COC[C@@H]1O | 2.5 h | – | –
8 | Cc1nc(-n2ncc3ccc([C@]4(C#N)CC45CC5)cc32)cs1 | 0.8 h | – | Kp uu [3]: 0.5
9 | CC1(N2CCC(c3cc4c(cnn4-c4cnn(-c5ncc(F)cn5)c4)cc3Cl)CC2)COC1 | 3.3 h | 3.3 | –
10 | CC1(N2CCN(c3cc4c(cnn4-c4cnn(C5CC5)c4)cc3Cl)CC2)CCOC1 (stereo not given) | 3.2 h | – | –
11 | CO[C@H]1C[C@H](n2cc(-n3ncc4cc(Cl)c(C5CCN(C6(C)COC6)CC5)cc43)cn2)C1 | 4.1 h | 3.5 | –
12 | CCn1cc(-n2ncc3cc(Cl)c(C4CCN(C5(C)COC5)CC4)cc32)cn1 | 4 h | 3.2 | –
13 | C[C@@]1(N2CCN(c3cc4c(cnn4-c4cnn(C56CC(C5)C6)c4)cc3Cl)CC2)COC[C@@H]1O | – | – | MRT [4]: 5.8 h; MRT [5]: 12 h; bioavailability [6]: 48%; AUC [7]: 101 µM·h; Kp uu [3]: 0.4
14 | Cn1cc(-n2ncc3cc(Cl)c(C4CCN(C5COC5)CC4)cc32)cn1 | 2.1 h | – | MRT [5]: 2.1 h; bioavailability [8]: 59%; Kp uu [9]: 0.9; bioavailability [10]: 77%; Kp uu [11]: 1; Kp uu [3]: 0.4
15 | CC1(N2CCN(c3cc4c(cnn4-c4cnn(-c5ncc(F)cn5)c4)cc3Cl)CC2)COC1 | 4.5 h | 2.8 | MRT [5]: 17 h; bioavailability [8]: 47%; bioavailability [10]: 88%
16 | CC1(N2CCN(c3cc4c(cnn4-c4cnn(C5CC5)c4)cc3Cl)CC2)COC1 | 2.8 h | – | –
17 | COC12CC(n3cc(-n4ncc5cc(Cl)c(N6CCN(C7(C)COC7)CC6)cc54)cn3)(C1)C2 | 3.2 h | – | –
18 | Cn1ccc(-n2ncc3cc(Cl)c(C4CCN(C5COC5)CC4)cc32)n1 | 1.5 h | – | –
19 | CC1(N2CCC(c3cc4c(cnn4-c4cnn(C(F)F)c4)cc3Cl)CC2)COC1 | 3.5 h | 3.7 | –
20 | CO[C@@H]1CCN(c2cc(-n3ncc4ccc([C@]5(C)CC56CC6)cc43)ncn2)C1 | 1 h | – | –
21 | CC1(N2CCN(c3cc4c(cnn4-c4cnn(C56CC(C(F)F)(C5)C6)c4)cc3Cl)CC2)COC1 | 2.7 h | – | –
22 | CC1(N2CCN(c3cc4c(cnn4-c4cnn(C56CC(C5)C6)c4)cc3Cl)CC2)COC1 | 3.4 h | – | –
